Assay results from patent US5877165A, “Boronated porhyrins and methods for their use” (priority 1997, dated 1999).

Tests used:
[1] = tested on: EMT-6 mammary tumors; test: Experiment II: boron concentrations in tissues, mice bearing EMT-6 tumors (Table 9); type: in vivo, BALB/c mice; details: 90 hrs after last ip injection; NiDPE 78 (6 ip), VCDP 245 μg/gbw (12 ip)
Description: Lipophilic porphyrins 1, 2, 4, 5, and 6 were injected as emulsions in either 3% or 9% CRM and either 6% or 18% PRG with saline as previously described in Example 2 above. Water soluble porphyrins 3 and 7 were dissolved in saline. BPA was solubilized as a fructose complex.
Female BALB/c mice (from Taconic Farms, Germantown, N.Y.) (20-25 g) were implanted with either KHJJ or EMT-6 tumors according to the procedure described in Example 3A above.
Under deep halothane anesthesia leading to euthanasia, right ventricular blood was collected in Microtainer (Becton-Dickinson, Rutherford, N.J.) tubes containing EDTA for hematological analyses and boron assays of whole blood and in Microtainer™ tubes containing lithium heparin for chemical analyses and enzyme assays of blood plasma. Tumor, brain, fat, muscle, and liver tissues were sampled at necropsy for boron analyses.
Hematological, chemical and enzymatic tests were carried out as described in Example 3 above. Nonparametric statistical analyses were carried out using the Wilcoxon Two-Sample Test in accordance with procedures described in Slatkin, D.N., 1995. Boron analyses were conducted in accordance with the procedure described in Example 3 above. Fat and liver tissues were assayed for ^10 B by prompt-gamma spectroscopy as described in Fairchild, et al., 1986. These measurements were multiplied by 5.0 to give total boron concentrations due to the use of boron of natural isotope abundance in the syntheses of all boronated porphyrins reported.

[2] = Overall ranking of boronated porphyrins for BNCT guided by biodistribution and toxicity tests in mice (Table 11); details: rank; higher numerical value = better performance
Description: The higher the numerical value, the better the performance of that porphyrin for that property. […] Although VCDP was able to deliver therapeutic amounts of boron to tumor, such side effects such as thrombocytopenia, which was induced within 3 hours after injections, weight loss, and the altered hepatic enzymes were serious enough to rank VCDP considerably behind the TCP's and the TCP-H's (Miura et al., 1992). In addition, the 80-hour drug administration period and the 90-hour blood clearance period are of great inconvenience. Moreover, this 4-day difference between the VCDP and the TCP (or TCP-H) dose and clearance schedules would translate into a 4-day greater delay between initiation of drug administration and neutron irradiation which would allow greater tumor growth to occur.
[…]
biodistribution and toxicity tests in mice. An asterisk indicates

[3] = tested on: EMT-6 tumors; test: Boron concentrations arithmetically normalized to constant dose, mice bearing EMT-6 tumors (FIG. 3); type: in vivo, BALB/c mice; details: normalized porphyrin dose (160 μg porphyrin/gbw)
Description: Since the porphyrins were not given at the same dose, the boron concentrations in tumor, blood, and brain were arithmetically normalized to a total dose of 160 μg porphyrin/gbw for comparison in FIG. 3. Since each porphyrin has a different percentage of boron per unit mass, tumor boron concentrations were also arithmetically normalized to a total dose of 36.5 μg B/gbw, also shown in FIG. 3.

[4] = cited from earlier work

3,8-divinyl-nido-carboranyldeuteroporphyrin [VCDP]
Boron concentration, Blood [1]: 7 (4.3-13) μB/g | Boron concentration, Brain [1]: 8.1 (4.9-16.2) μB/g | Boron concentration, Tumor [1]: 53 (30-106) μB/g | Drug tolerance/deliverable boron (ranking) [2]: 2 | Lipophilicity (ranking) [2]: 0 | Tumor uptake (normalized) (ranking) [2]: 3 | Tumor:Blood (ranking) [2]: 2 | tumor boron uptake, normalized [3]: 38 | toxicity vs control, in words ([4]; 130 μg VCDP/gbw over 32 hr, 90 hrs after last injection (Miura et al., 1992)): no differences from control groups given a bicarbonate solution, although CPK was slightly depressed | time to thrombocytopenia after injections ([4]; Miura et al., 1992): ≤ 3 h | dose per injection that keeps mortality below 10% ([4]; per injection, mice): 22 μg VCDP/gbw
